The record followed here is article PMC10518020, “Structure of the peroxisomal Pex1/Pex6 ATPase complex bound to a substrate” (Nature Communications, 2023).

Molecules are shown by their SMILES.

The test addresses T1, Pex1/Pex6_WB (Pex1-Strep2/His-Pex6(E832Q)) heterohexamer (Saccharomyces cerevisiae, UniProt P24004+P33760, P33760:E832Q).
T1 construct: full-length Pex1 with C-terminal Strep2 tag and Pex6(E832Q, D2 Walker B) with N-terminal His tag, co-expressed in S. cerevisiae MH 272/3f alpha; heterohexamer of alternating Pex1 and Pex6 (trimer of dimers); endogenous peptide trapped in D2 pore
T1 sequence (P24004 1-1043): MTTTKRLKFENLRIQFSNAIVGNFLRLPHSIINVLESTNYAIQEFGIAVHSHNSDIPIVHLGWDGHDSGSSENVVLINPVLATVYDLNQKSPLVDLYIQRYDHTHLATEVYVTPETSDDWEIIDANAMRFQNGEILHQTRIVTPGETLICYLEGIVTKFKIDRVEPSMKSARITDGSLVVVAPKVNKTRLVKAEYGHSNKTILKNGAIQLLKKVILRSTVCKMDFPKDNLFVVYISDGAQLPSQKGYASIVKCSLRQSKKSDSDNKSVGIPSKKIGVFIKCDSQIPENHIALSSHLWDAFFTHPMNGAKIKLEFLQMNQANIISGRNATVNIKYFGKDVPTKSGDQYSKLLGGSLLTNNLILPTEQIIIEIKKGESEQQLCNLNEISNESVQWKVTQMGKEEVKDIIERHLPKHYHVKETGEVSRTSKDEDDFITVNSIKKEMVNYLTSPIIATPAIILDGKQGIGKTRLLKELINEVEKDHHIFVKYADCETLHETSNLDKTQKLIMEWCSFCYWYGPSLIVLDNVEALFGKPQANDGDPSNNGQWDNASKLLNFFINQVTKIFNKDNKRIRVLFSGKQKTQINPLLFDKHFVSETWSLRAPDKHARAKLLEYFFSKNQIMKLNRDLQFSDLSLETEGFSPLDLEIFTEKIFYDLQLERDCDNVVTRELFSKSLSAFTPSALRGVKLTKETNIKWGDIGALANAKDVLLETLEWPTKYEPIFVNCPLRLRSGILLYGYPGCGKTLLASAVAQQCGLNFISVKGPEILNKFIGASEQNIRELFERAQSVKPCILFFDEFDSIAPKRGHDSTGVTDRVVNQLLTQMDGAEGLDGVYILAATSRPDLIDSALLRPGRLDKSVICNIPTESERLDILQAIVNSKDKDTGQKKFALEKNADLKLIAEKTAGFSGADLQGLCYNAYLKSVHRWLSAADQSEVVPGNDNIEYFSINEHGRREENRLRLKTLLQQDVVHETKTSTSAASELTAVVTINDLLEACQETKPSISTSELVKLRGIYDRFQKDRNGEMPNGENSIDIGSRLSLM
T1 sequence (P33760 1-1030 E832Q): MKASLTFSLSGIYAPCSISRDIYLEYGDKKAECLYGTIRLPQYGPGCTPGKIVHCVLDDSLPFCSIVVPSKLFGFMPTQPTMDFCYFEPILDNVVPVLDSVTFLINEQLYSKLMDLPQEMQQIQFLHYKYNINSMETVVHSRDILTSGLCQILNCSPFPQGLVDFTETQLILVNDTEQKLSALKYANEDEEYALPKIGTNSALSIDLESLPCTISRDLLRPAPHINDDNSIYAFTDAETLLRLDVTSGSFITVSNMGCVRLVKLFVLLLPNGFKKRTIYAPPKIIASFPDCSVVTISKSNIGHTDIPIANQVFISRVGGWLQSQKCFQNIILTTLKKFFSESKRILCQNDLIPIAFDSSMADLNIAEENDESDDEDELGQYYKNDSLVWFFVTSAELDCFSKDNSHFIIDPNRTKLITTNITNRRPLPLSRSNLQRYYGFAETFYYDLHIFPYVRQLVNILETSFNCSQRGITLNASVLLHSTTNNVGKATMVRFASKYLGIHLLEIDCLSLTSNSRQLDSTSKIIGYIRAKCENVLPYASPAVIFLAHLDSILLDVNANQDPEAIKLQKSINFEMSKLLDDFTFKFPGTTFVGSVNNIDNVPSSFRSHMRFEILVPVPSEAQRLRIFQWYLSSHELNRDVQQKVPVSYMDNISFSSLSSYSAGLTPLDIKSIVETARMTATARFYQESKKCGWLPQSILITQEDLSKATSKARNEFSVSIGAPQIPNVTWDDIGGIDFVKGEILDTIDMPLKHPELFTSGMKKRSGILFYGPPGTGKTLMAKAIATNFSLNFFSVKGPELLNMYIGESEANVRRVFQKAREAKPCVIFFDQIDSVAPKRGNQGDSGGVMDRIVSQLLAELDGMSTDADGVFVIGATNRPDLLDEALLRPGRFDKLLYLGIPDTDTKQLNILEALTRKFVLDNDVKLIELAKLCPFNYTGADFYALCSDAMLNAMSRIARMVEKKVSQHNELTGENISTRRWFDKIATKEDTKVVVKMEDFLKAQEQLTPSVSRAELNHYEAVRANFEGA
Briefly: cryo-EM structure. Type of test: binding.

`Nc1ncnc2c1ncn2[C@@H]1O[C@H](COP(=O)(O)OP(=O)(O)OP(=O)(O)O)[C@@H](O)[C@H]1O` [ATP]: the cryo-EM structure result (Mg2+, 1-3 mM ATP in purification, bound at all six D1 sites (not hydrolysed) and at D2 sites of the substrate-engaged subunits, single-seam 8C0V and twin-seam 8C0W) is listed as “all ATPase domains of the D1 ring are bound to ATP”.

With `Nc1ncnc2c1ncn2[C@@H]1O[C@H](COP(=O)(O)OP(=O)(O)O)[C@@H](O)[C@H]1O` [ADP], the cryo-EM structure result (D2 sites of bottom and seam subunits, nucleotide assigned from density and pocket opening, not with absolute confidence, no ADP added (ATP in purification)) is “D2 domains are indeed in an ADP-bound state”.
